Reference: US10081632B2, “Substituted tetrahydropyrido[3′,2′:4,5]pyrrolo[1,2-α]pyrazine-2-carboxamides as RSK inhibitors” (Phoenix Molecular Designs, priority 2016, dated 2018)

Key:
MDA-MB-231 cells [1] = assay: Soft agar growth inhibition assay; format: cell-based; conditions: Homo sapiens
CD34+ cells = assay: Colony forming unit hematopoietic stem cell assay; format: cell-based, human
Procedure: The hematopoietic colony forming cell assay was conducted based on a protocol outlined by StemCell Technologies. […] Following the addition of CD34^+ cells isolated from human cord blood or peripheral blood (StemCell Technologies) at a final concentration of 5×10^2 cells per dish, the tubes were vortexed and allowed to stand for 5 minutes at room temperature. Next, the MethoCult mixtures were dispensed into 35 mm dishes (Corning Incorporated) through blunt end needles (StemCell Technologies) and 5 ml syringes (BD Biosciences) at a volume of 1.1 ml per dish. The medium was evenly distributed across the surface of each dish by gentle tilting and rotation. The dishes were then placed in a 100 mm culture dish (Grenier Bio-One) containing additional 35 mm dishes with sterile water to maintain humidity. […] The number of myeloid and erythroid derived colonies in both the treated and control dishes were counted and compared.

MDA-MB-231 cells [2] = assay: Combination with paclitaxel, monolayer growth (crystal violet); conditions: MDA-MB-231 cells + 0.3 nM PTX, 5 days
Procedure: 1×10^3 cells per well were seeded for a final volume of 200 μl per well and plates were incubated for 5 days at 37° C. in a humidified incubator with 5% CO2. Following the incubation period, cell survival was quantified by Alamar blue assay (Life Technologies). Briefly, media from each well was replaced with 100 μl of phosphate buffer saline (PBS, Life Technologies) and cells were incubated with 5% Alamar blue, which incorporates a propriety redox indicator that changes colour in response to metabolic activity, for up to 2 hours. During this period of incubation, the absorbance at 570 nm and 600 nm was measured at various time points, depending on the cell line or sample. Percent survival was calculated by comparing the absorbance ratio of the test well to the control well multiplied by 100%, as indicated in the following formula:
Following, plates were prepared for crystal violet staining. To begin, 100 μl of an 8% formaldehyde (Alfa Aesar) solution diluted in PBS was added to each well and plates were stored at 4° C. overnight. Next, the formaldehyde solution was discarded and the wells were washed with 200 μl ultrapure water per well three times. Following, 50 μl of a 0.5% crystal violet solution (0.5% w/v crystal violet (Alfa Aesar), 25% methanol (VWR)) was added to each well and incubated at room temperature for 20 minutes. The crystal violet solution was discarded and wells were washed with 200 μl ultrapure water per well three times. Next, 50 μl of a 5% sodium dodecyl sulphate (SDS) (Alfa Aesar) was added to each well and the absorbance at 590 nm was measured.

[3] = Solubility assessment, 20 mg/ml solution; format: physicochemical; conditions: 100 mM in DMSO diluted in DMEM growth media to 20 mg/ml
Procedure: Solubility is an important property for therapeutic drug candidates. Poor solubility can lead to low bioavailability resulting in suboptimal drug delivery. It can also prevent the evaluation of test agents in animals because the concentration(s) needed to achieve the desired effect cannot be achieved to poor solubility. For solubility assessments, small molecules targeting RSK were compared. For these assessments, 100 mM solutions of the compounds dissolved in DMSO were diluted in DMEM growth media (Life Technologies) supplemented with fetal bovine serum (FBS, Life Technologies) and 100 units/ml penicillin and 100 units/ml streptomycin (Life Technologies) to make 20 mg/ml solutions. Once diluted, the solutions were vortexed and examined for the formation of precipitates. […] For Compound 26, a 100 mM solution of the compound dissolved in DMSO was diluted in phosphate buffered saline (Life Technologies) to make a 20 mg/ml solution. The stock of […] was chosen because this is the upper end of what would be required to dose mice for a range of studies including MTD, PK, PD and efficacy. The pH of this solution was determined to be 2, as previously described. […] At high concentrations some RSK inhibitors were highly soluble while others were not. Compound 0 is (R)—N-(1-benzyl-1H-pyrazol-4-yl)-9-methyl-6-oxo-6,7,8,9-tetrahydropyrido[3′,2′:4,5]pyrrolo[1,2-a]pyrazine-2-carboxamide. Compound 0 was not soluble, whereas Compounds 18, 20, 21, 25 and 26 were soluble under the same conditions (Table 5).

4T1 cells [4] = assay: Monolayer growth inhibition, Alamar blue assay; format: cell-based; conditions: Mus musculus; 4T1 (TNBC), 5 days, single dose on day 1
Excerpt: (§1) In all instances a single dose was given on day 1 of the experiment.

HCC1143 cells [5] = assay: Monolayer growth inhibition, Alamar blue assay; format: cell-based; conditions: Homo sapiens; HCC1143 (TNBC), 5 days, single dose on day 1
Excerpt: as §1

HCC1937 cells [6] = assay: Monolayer growth inhibition, Alamar blue assay; format: cell-based; conditions: Homo sapiens; HCC1937 (TNBC, BRCA Mutant), 5 days, single dose on day 1
Excerpt: as §1

JIMT-1 cells [7] = assay: Monolayer growth inhibition, Alamar blue assay; format: cell-based; conditions: Homo sapiens; JIMT-1 (HER2), 5 days, single dose on day 1
Excerpt: as §1

MDA-MB-231 cells [8] = assay: Monolayer growth inhibition, Alamar blue assay; format: cell-based; conditions: Homo sapiens; MDA-MB-231 (TNBC), 5 days, single dose on day 1
Excerpt: as §1

MDA-MB-435 cells [9] = assay: Monolayer growth inhibition, Alamar blue assay; format: cell-based; conditions: Homo sapiens; MDA-MB-435 (Melanoma), 5 days, single dose on day 1
Excerpt: as §1

MDA-MB-468 cells [10] = assay: Monolayer growth inhibition, Alamar blue assay; format: cell-based; conditions: Homo sapiens; MDA-MB-468 (TNBC), 5 days, single dose on day 1
Excerpt: as §1

PC3 cells [11] = assay: Monolayer growth inhibition, Alamar blue assay; format: cell-based; conditions: Homo sapiens, PC-3; PC3 (Prostate), 5 days, single dose on day 1
Excerpt: as §1

SUM149 cells [12] = assay: Monolayer growth inhibition, Alamar blue assay; format: cell-based; conditions: Homo sapiens; SUM149 (TNBC, BRCA Mutant), 5 days, single dose on day 1
Excerpt: as §1

SUM149-PTXR cells [13] = assay: Monolayer growth inhibition, Alamar blue assay; format: cell-based, Human; conditions: Homo sapiens; SUM149-PTXR (TNBC, BRCA Mutant), 5 days, single dose on day 1
Excerpt: as §1

T47D cells [14] = assay: Monolayer growth inhibition, Alamar blue assay; format: cell-based, Human; conditions: Homo sapiens; T47D (ER/PR), 5 days, single dose on day 1
Excerpt: as §1

All cell lines [15] = assay: Monolayer growth inhibition, Alamar blue assay, range over all cell lines; format: cell-based; conditions: 120 h; range of IC50 over all cell lines of the table; read-out: IC50 Values - Alamar Blue (5 Days), Range, All
Excerpt: as §1

HCC1937 cells [16] = assay: Monolayer growth inhibition, crystal violet assay; format: cell-based; conditions: Homo sapiens; HCC1937 (TNBC, BRCA Mutant), 5 days, single dose on day 1
Excerpt: (§2) In all instances a single dose was given on day 1 of the experiment. […] Complete (100%) growth suppression was achievable with several of the compounds in multiple different cell lines.

JIMT-1 cells [17] = assay: Monolayer growth inhibition, crystal violet assay; format: cell-based; conditions: Homo sapiens; JIMT-1 (HER2), 5 days, single dose on day 1
Excerpt: as §2

MDA-MB-468 cells [18] = assay: Monolayer growth inhibition, crystal violet assay; format: cell-based; conditions: Homo sapiens; MDA-MB-468 (TNBC), 5 days, single dose on day 1
Excerpt: as §2

T47D cells [19] = assay: Monolayer growth inhibition, crystal violet assay; format: cell-based; conditions: Homo sapiens; T47D (ER/PR), 5 days, single dose on day 1
Excerpt: as §2

4T1 cells [20] = assay: Monolayer growth inhibition, crystal violet assay; format: cell-based; conditions: Mus musculus; 4T1 (TNBC), 5 days, single dose on day 1
Excerpt: as §1

HCC1143 cells [21] = assay: Monolayer growth inhibition, crystal violet assay; format: cell-based; conditions: Homo sapiens; HCC1143 (TNBC), 5 days, single dose on day 1
Excerpt: as §1

MDA-MB-231 cells [22] = assay: Monolayer growth inhibition, crystal violet assay; format: cell-based; conditions: Homo sapiens; MDA-MB-231 (TNBC), 5 days, single dose on day 1
Excerpt: as §1

MDA-MB-435 cells [23] = assay: Monolayer growth inhibition, crystal violet assay; format: cell-based; conditions: Homo sapiens; MDA-MB-435 (Melanoma), 5 days, single dose on day 1
Excerpt: as §1

PC3 cells [24] = assay: Monolayer growth inhibition, crystal violet assay; format: cell-based; conditions: Homo sapiens, PC-3; PC3 (Prostate), 5 days, single dose on day 1
Excerpt: as §1

SUM149 cells [25] = assay: Monolayer growth inhibition, crystal violet assay; format: cell-based; conditions: Homo sapiens; SUM149 (TNBC, BRCA Mutant), 5 days, single dose on day 1
Excerpt: as §1

SUM149-PTXR cells [26] = assay: Monolayer growth inhibition, crystal violet assay; format: cell-based; conditions: Homo sapiens; SUM149-PTXR (TNBC, BRCA Mutant), 5 days, single dose on day 1
Excerpt: as §1

All cell lines [27] = assay: Monolayer growth inhibition, crystal violet assay, range over all cell lines; format: cell-based; conditions: 120 h; range of IC50 over all cell lines of the table; read-out: IC50 Values - Crystal Violet (5 Days), Range, All
Excerpt: as §2

MDA-MB-468 cells [28] = assay: Soft agar growth inhibition assay; format: cell-based, Human; conditions: Homo sapiens; MDA-MB-468 (TNBC), 14-22 days
4T1 cells [29] = assay: Soft agar growth inhibition assay; format: cell-based; conditions: Mus musculus; 4T1 (TNBC), 14-22 days; read-out: IC50 Values - Soft Agar (14-22 Days)
Procedure: Two agar (Alfa Aesar) solutions (0.8% w/v and 0.4% w/v) were prepared in ultrapure water. The 0.8% agar solution was mixed in equal volumes with 2× media previously prepared from powder (Life Technologies) following the manufacturer's instructions and filter sterilized. The 0.8% agar and media solution was added to 24 well plates (Mandel Scientific) at 500 μl per well. The plates were placed in a humidified incubator at 37° C. with 5% CO2. Next, the 0.4% agar solution was mixed in equal volumes with 2× media. Breast cancer cell lines were added to this solution to achieve a final concentration of 2×10^4 cells per well and […] was added to each well on top of the bottom agar and media layer. […] The plates were returned to the incubator for 10-32 days, with a re-dosing of compounds or DMSO every 7 days. After 10-32 days, colonies were counted in 3 different fields of view for each well.
Representative compounds described herein were tested in the soft agar growth inhibition assay against the 4T1 breast cancer cell line.

[30] = tested on: phosphorylated Y-box binding protein-1 (YB-1) at serine 102 (P-YB-1S102); assay: Immunoblotting of cell signalling, loss of P-YB-1 in MDA-MB-231 cells; conditions: Homo sapiens, MDA-MB-231, read-out: IC50 values for P-YB-1
Procedure: Following desired experimental conditions, breast cancer cell lines grown and treated in 6 well plates or 100 mm culture dishes (Grenier Bio-One) were placed on ice and the supernatant from each well was removed and the cells were washed in cold PBS. Following removal of PBS, cells were exposed to radioimmunoprecipitation assay (RIPA) buffer (50 mM Tris-HCl (pH 8), 150 mM NaCl, 1% NP-40, 0.5% sodium deoxycholate, 0.1% SDS; Fisher Scientific) supplemented with 1% phosphatase inhibitor (Fisher Scientific) and 1% protease inhibitor (Fisher Scientific) for 10 minutes. Samples were transferred to eppendorf tubes, vortexed and then centrifuged at 14 000 rpm for 10 minutes. Supernatants were collected as whole cell lysates.
To begin, the protein content of the lysates was measured using the Bicinchoninic Acid (BCA) Protein Assay Kit (Pierce), which included a protein standard curve generated with bovine serum albumin. Appropriate volumes of samples and loading buffer (50 mM Tris-HCl (pH 6.8), 2% SDS, 10% glycerol, 1% j-mercaptoethanol, 12.5 mM EDTA, 0.02% bromophenol blue) were mixed, ensuring that equal amounts of protein were loaded. For the majority of experiments in this study, 30 μg of protein per well was loaded. Samples were then resolved on SDS-PAGE (polyacrylamide gel electrophoresis) using various percentages of acrylamide gels (8%-12%), depending on the proteins of interest. SDS-PAGE was run in SDS running buffer (25 mM Tris, 192 mM glycine, 0.1% SDS) and then transferred to nitrocellulose membranes (Bio-Rad) in transfer buffer (48 mM Tris, 39 mM glycine, 20% (v/v) methanol) at 100 volts for 90 minutes at room temperature. Immunoblots were then blocked in 5% skim milk in tris-buffered saline with 0.1% Tween-20 (TBS-T; 50 mM Tris-HCl, pH 7.5, 150 mM NaCl, 0.1% (v/v) Tween-20 (Fisher Scientific)) for 1 to 2 hours. Immunoblots were then incubated with selected primary antibodies diluted in TBS-T with 0.1% gelatin (Bio-Rad) and 0.05% sodium azide (Alfa Aesar) overnight. Following washes with TBT-T 4 times for 8 to 10 minutes, immunoblots were incubated with appropriate secondary antibodies conjugated to horseradish peroxidise (Cell Signalling Technology) diluted in TBS-T plus 5% skim milk at a ratio of 1:5000 for 2 hours at room temperature. After an additional round of washes in TBS-T, immunoblots were exposed to combined enhanced chemiluminescence (ECL) reagents (Fisher Scientific) for 1 minute and developed using ChemiDoc MP Imaging System (Bio-Rad). For certain immunoblots, bands of proteins of interest were scanned and band intensity ratios were determined by densitometric analysis (ImageJ). […] Total YB-1 was used as a loading control (1:5000 Abcam). […] To assess whether cells are actively undergoing cell death, the activity of poly ADP ribose polymerase (PARP) (1:1000 CST) was also measured using the immunoblotting method.

[31] = MDA-MB-231 (TNBC), 14-22 days, read-out: IC50 Values - Soft Agar (14-22 Days)

| SMILES | Solubility, 20 mg/ml Solution [3] | IC50 (4T1 cells [4]) [µM] | IC50 (HCC1143 cells [5]) [µM] | IC50 (HCC1937 cells [6]) [µM] | IC50 (JIMT-1 cells [7]) [µM] | IC50 (MDA-MB-231 cells [8]) [µM] | IC50 (MDA-MB-435 cells [9]) [µM] | IC50 (MDA-MB-468 cells [10]) [µM] | IC50 (PC3 cells [11]) [µM] | IC50 (SUM149 cells [12]) [µM] | IC50 (SUM149-PTXR cells [13]) [µM] | IC50 (T47D cells [14]) [µM] | IC50 (All cell lines [15]) [µM] | IC50 (HCC1937 cells [16]) [µM] | IC50 (JIMT-1 cells [17]) [µM] | IC50 (MDA-MB-468 cells [18]) [µM] | IC50 (T47D cells [19]) [µM] | IC50 (4T1 cells [20]) [µM] | IC50 (HCC1143 cells [21]) [µM] | IC50 (MDA-MB-231 cells [22]) [µM] | other results |
| --- | --- | --- | --- | --- | --- | --- | --- | --- | --- | --- | --- | --- | --- | --- | --- | --- | --- | --- | --- | --- | --- |
| CC(=O)O[C@H]1C(=O)[C@@]2(C)[C@H]([C@H](OC(=O)c3ccccc3)[C@]3(O)C[C@H](OC(=O)[C@H](O)[C@@H](NC(=O)c4ccccc4)c4ccccc4)C(C)=C1C3(C)C)[C@]1(OC(C)=O)CO[C@@H]1C[C@@H]2O [Taxol, paclitaxel, reference compound] |  |  |  |  |  |  |  |  |  |  |  |  |  |  |  |  |  |  |  |  | IC50 (MDA-MB-231 cells [1]; MDA-MB-231, growth in soft agar (SA), read-out: MDA-MB-231 IC50 (SA)): 0.0014 µM; IC50 (CD34+ cells; Homo sapiens, Hematopoietic stem cell, CD34+ cells from peripheral blood, read-out: CD34+ (PB) IC50): 0.0097 µM; Therapeutic Window (CD34+ cells; ratio IC50 against CD34+ cells and MDA-MB-231 cells (SA)): 6.9X; % Survival (MDA-MB-231 cells [2]): MDA-MB-231 cells + 0.3 nM PTX: % Survival = 47.7% |
| C[C@@H]1CNC(=O)c2c(Cl)c3ccc(C(=O)Nc4cnn(Cc5ccccc5)c4)nc3n21 [Compound 24, (R)—N-(1-benzyl-1H-pyrazol-4-yl)-5-chloro-9-methyl-6-oxo-6,7,8,9-tetrahydropyrido[3′,2′:4,5]pyrrolo[1,2-a]pyrazine-2-carboxamide] | Precipitate | 0.5 ± 0.3 | 4.4 ± 1.9 | 9.2 ± 3.2 | 12.3 ± 5.9 | 9.8 ± 3.1 | 5.6 ± 0.1 | 4.5 ± 2.3 | 12 ± 4.5 | 1.1 ± 0.9 | 3.4 ± 2.1 | 4.5 ± 4.1 | 0.5 to 12.3 | 5.8 ± 0.4 | 7.5 ± 2.2 | 3.3 ± 1.3 | 2.7 ± 2.1 | 0.3 ± 0.1 | 5.8 ± 2.6 | 9.1 ± 1.3 | IC50 (MDA-MB-435 cells [23]): 5 ± 3.6 µM; IC50 (PC3 cells [24]): 6.5 ± 2.8 µM; IC50 (SUM149 cells [25]): 0.9 ± 0.3 µM; IC50 (SUM149-PTXR cells [26]): 4.5 ± 1.4 µM; IC50 (All cell lines [27]): 0.3 to 9.1 µM; IC50 (MDA-MB-231 cells [1]; [31]): 0.4 ± 0.2 µM; IC50 (MDA-MB-468 cells [28]): 2.5 ± 2 µM; IC50 (4T1 cells [29]): 0.7 ± 0.3 µM; IC50 [30]: 0.016 µM |
| C[C@@H]1CNC(=O)c2cc3ccc(C(=O)Nc4cnn(Cc5ccc(C(F)(F)F)cc5)c4)nc3n21 [Compound 22, (R)-9-methyl-6-oxo-N-(1-(4-(trifluoromethyl)benzyl)-1H-pyrazol-4-yl)-6,7,8,9-tetrahydropyrido[3′,2′:4,5]pyrrolo[1,2-a]pyrazine-2-carboxamide] | Precipitate | 4.5 ± 1 | 9.9 ± 1 | 12.6 ± 3.5 | 17.1 ± 2.4 | 13.9 ± 3.5 | 6.8 ± 6.4 | 7.5 ± 2.1 | 9.2 ± 1.5 | 7.7 ± 4.6 | 7.8 ± 4.6 | 4.8 ± 0.9 | 4.5 to 17.1 | 9.9 ± 3 | 14.2 ± 5.1 | 6.6 ± 2.3 | 4.3 ± 2.1 | 2.6 ± 1.5 | 6.6 ± 3.1 | 6.6 ± 2.1 | IC50 (MDA-MB-435 cells [23]): 3.2 ± 1.3 µM; IC50 (PC3 cells [24]): 6.8 ± 1.8 µM; IC50 (SUM149 cells [25]): 6.2 ± 4.8 µM; IC50 (SUM149-PTXR cells [26]): 8 ± 1.3 µM; IC50 (All cell lines [27]): 2.6 to 14.2 µM; IC50 (MDA-MB-231 cells [1]; [31]): 0.2 ± 0.1 µM; IC50 (MDA-MB-468 cells [28]): 6.9 ± 1.7 µM; IC50 (4T1 cells [29]): 3.8 ± 1.9 µM; IC50 [30]: 0.024 µM |
